Data taken from PMC9011347, “Small-Molecule Inhibitors Targeting Lipolysis in Human Adipocytes” (Journal of the American Chemical Society, 2022).

Key:
Experiment in all cases: TAG hydrolase assay, humanized mouse ATGL variants
Assay type in all cases: biochemical
[1] = target: T1, mouse ATGL I69F/T93I/C97F/T146G quadruple mutant (Mus musculus, UniProt Q8BJ56, C97F/I69F/T146G/T93I); details: I69F/T93I/C97F/T146G quadruple mutant of mouse ATGL
T1 construct: host or cells: Expi293 cells, cell lysate
T1 sequence (Q8BJ56 whole entry I69F/T93I/C97F/T146G): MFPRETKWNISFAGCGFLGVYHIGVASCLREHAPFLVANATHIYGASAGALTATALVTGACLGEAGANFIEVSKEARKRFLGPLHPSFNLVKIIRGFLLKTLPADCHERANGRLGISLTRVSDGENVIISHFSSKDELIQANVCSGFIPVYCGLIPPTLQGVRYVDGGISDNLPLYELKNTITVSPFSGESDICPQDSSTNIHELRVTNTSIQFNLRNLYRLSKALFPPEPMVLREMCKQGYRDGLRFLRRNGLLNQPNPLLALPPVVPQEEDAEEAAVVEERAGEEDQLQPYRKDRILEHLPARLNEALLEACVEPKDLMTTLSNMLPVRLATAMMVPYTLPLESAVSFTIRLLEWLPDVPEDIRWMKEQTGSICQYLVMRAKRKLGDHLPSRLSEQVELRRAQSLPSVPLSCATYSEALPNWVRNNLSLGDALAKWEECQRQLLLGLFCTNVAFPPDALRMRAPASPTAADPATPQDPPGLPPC
Source text: (§1) According to our 3D model, aa T93 and C97 are located in close spatial proximity to I69. […] According to our 3D models, the overall topologies of the minimal active domains of mouse and human ATGL are identical, with S47 and D166 as active site residues in close spatial proximity (depicted as green sticks, Figure 6d,f). Residues S10–L178 (depicted in blue for mouse and pink for human) build a relatively compact half of the protein, while residues K179–L254 (depicted in gray) are less compact. The minimal active domain of both mouse and human ATGL is predicted to have a large, two-pronged fork cavity. The “left,” shallow prong is formed mainly by residues S10–L17 and S170–L254. The “right,” deeper prong is formed by five different helices (depicted in light blue and pink for mouse and human ATGL, respectively). The first helix is assembled by the N-terminal residues G16-E31. […] form three other helices and residues L137–F147 assemble a short helix with an adjacent unstructured stretch. In the orientation shown in Figure 6d,f, the active site is located in the middle part of the cavity connecting both prongs to the exterior. I69, C97, T146, and their human counterparts F69, F97, and G146, are all located in the right prong of the cavity. T(G)146 is located near the active site, while I(F)69 and C(F)97 are located on the opposite side of the cavity in close spatial proximity (Figure 6e,g). Our 3D homology models indicate that these residues change the widths and depths of the right prong, which can explain their crucial contribution to inhibitor selectivity and efficacy.
(§2) Figure 6 Identification of the molecular scaffold determining species selectivity. (a) Schematic view of mouse ATGL variants, which are sensitive to NG-497 inhibition. Humanized aa are indicated in red and nonidentical aa are indicated in dark blue. (b) Dose-dependent inhibition of the I69F/T146G double mutant, the I69F/T93I/C97F/T146G quadruple mutant, and human ATGL. (c) Dose-dependent inhibition of triple mutants I69F/T93I/T146G and I69F/C97F/T146G, and human ATGL. IC50 values are shown in the insets. […]

[2] = target: T2, mouse ATGL triple mutant I69F/T93I/T146G (Mus musculus, UniProt Q8BJ56, I69F/T146G/T93I); details: I69F/T93I/T146G triple mutant of mouse ATGL
T2 construct: host or cells: Expi293 cells, cell lysate
T2 sequence (Q8BJ56 whole entry I69F/T93I/T146G): as the sequence (Q8BJ56 whole entry I69F/T93I/C97F/T146G) above, with F97C counted along it
Source text: as §1, §2

[3] = target: T3, mouse ATGL triple mutant I69F/C97F/T146G (Mus musculus, UniProt Q8BJ56, C97F/I69F/T146G); details: I69F/C97F/T146G triple mutant of mouse ATGL
T3 construct: host or cells: Expi293 cells, cell lysate
T3 sequence (Q8BJ56 whole entry I69F/C97F/T146G): as the sequence (Q8BJ56 whole entry I69F/T93I/C97F/T146G) above, with I93T counted along it
Source text: as §1, §2

CCOc1ccc(-c2cc(OC)cc(C(=O)OC(C)C)n2)cc1 [NG-497]
IC50 [1]: 1.6 ± 0.1 µM
IC50 [2]: 9.3 µM
IC50 [3]: 1 µM
